# In PubChem BioAssay (NCI):
#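 Cultured in 96-well plates, cells were exposed to test compound for 48 hours across five concentrations. GI50 = concentration required for 50% inhibition of growth. The concentration for full growth arrest is given as TGI.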
# Tests used:
# Assay in all cases: NCI-60 cell line screen, 48 h
# [1] = tested on: 786-0 renal
# [2] = tested on: A498 renal
# [3] = tested on: A549 NSCLC
# [4] = tested on: ACHN renal
# [5] = tested on: BT-549 breast
# [6] = tested on: CAKI-1 renal
# [7] = tested on: CCRF-CEM leukemia
# [8] = tested on: COLO 205 colon
# [9] = tested on: DU-145 prostate
# [10] = tested on: EKVX NSCLC
# [11] = tested on: HCC-2998 colon
# [12] = tested on: HCT-116 colon
# [13] = tested on: HCT-15 colon
# [14] = tested on: HL-60(TB) leukemia
# [15] = tested on: HOP-62 NSCLC
# [16] = tested on: HOP-92 NSCLC
# [17] = tested on: HS 578T breast
# [18] = tested on: HT29 colon
# [19] = tested on: IGROV1 ovarian
# [20] = tested on: K-562 leukemia
# [21] = tested on: KM12 colon
# [22] = tested on: LOX IMVI melanoma
# [23] = tested on: M14 melanoma
# [24] = tested on: MALME-3M melanoma
# [25] = tested on: MCF7 breast
# [26] = tested on: MDA-MB-231 breast
# [27] = tested on: MDA-MB-435
# [28] = tested on: MDA-MB-468 breast
# [29] = tested on: MOLT-4 leukemia
# [30] = tested on: NCI-H226 lung
# [31] = tested on: NCI-H23 lung
# [32] = tested on: NCI-H460 lung
# [33] = tested on: NCI-H522 lung
# [34] = tested on: NCI/ADR-RES ovarian
# [35] = tested on: OVCAR-3 ovarian
# [36] = tested on: OVCAR-4 ovarian
# [37] = tested on: OVCAR-5 ovarian
# [38] = tested on: OVCAR-8 ovarian
# [39] = tested on: PC-3 prostate
# [40] = tested on: RPMI-8226 leukemia
# [41] = tested on: RXF 393 renal
# [42] = tested on: SF-268 CNS
# [43] = tested on: SF-295 CNS
# [44] = tested on: SF-539 CNS
# [45] = tested on: SK-MEL-2 melanoma
# [46] = tested on: SK-MEL-28 melanoma
# [47] = tested on: SK-MEL-5 melanoma
# [48] = tested on: SK-OV-3 ovarian
# [49] = tested on: SN12C renal
# [50] = tested on: SNB-19 CNS
# [51] = tested on: SNB-75 CNS
# [52] = tested on: SR leukemia
# [53] = tested on: SW-620 colon
# [54] = tested on: T-47D breast
# [55] = tested on: TK-10 renal
# [56] = tested on: U251 CNS
# [57] = tested on: UACC-257 melanoma
# [58] = tested on: UACC-62 melanoma
# [59] = tested on: UO-31 renal
structure (smiles),measurement,setting,value
O=C(Cc1ccc2c(c1)CN(C1CCC(=O)NC1=O)C2=O)NCc1cccc2ccccc12 (configuration not stated),GI50,[1],< 10 nM
same,GI50,[2],< 10 nM
same,TGI,[2],72.8 nM
same,GI50,[3],14.6 nM
same,TGI,[3],> 100000 nM
same,GI50,[4],52.6 nM
same,TGI,[4],904 nM
same,GI50,[5],< 10 nM
same,TGI,[5],< 10 nM
same,GI50,[6],< 10 nM
same,TGI,[6],6380 nM
same,GI50,[7],< 10 nM
same,TGI,[7],105 nM
same,GI50,[8],< 10 nM
same,TGI,[8],< 10 nM
same,GI50,[9],38.8 nM
same,GI50,[10],< 22.4 nM
same,GI50,[11],< 10 nM
same,TGI,[11],< 10 nM
same,GI50,[12],54.6 nM
same,TGI,[12],> 100000 nM
same,GI50,[13],< 10 nM
same,TGI,[13],114 nM
same,GI50,[14],< 10 nM
same,GI50,[15],< 10 nM
same,TGI,[15],< 32.1 nM
same,GI50,[16],< 10 nM
same,TGI,[16],< 10 nM
same,GI50,[17],< 10 nM
same,TGI,[17],< 17.9 nM
same,GI50,[18],10.2 nM
same,TGI,[18],108 nM
same,GI50,[19],< 10 nM
same,TGI,[19],< 15.7 nM
same,GI50,[20],< 10 nM
same,TGI,[20],> 100000 nM
same,GI50,[21],< 10 nM
same,TGI,[21],461 nM
same,GI50,[22],41.5 nM
same,TGI,[22],2510 nM
same,GI50,[23],< 10 nM
same,TGI,[23],33.4 nM
same,GI50,[24],< 10 nM
same,TGI,[24],< 10 nM
same,GI50,[25],< 10 nM
same,TGI,[25],> 33300 nM
same,GI50,[26],< 10 nM
same,TGI,[26],< 10 nM
same,GI50,[27],< 10 nM
same,TGI,[27],163 nM
same,GI50,[28],< 10 nM
same,TGI,[28],< 10 nM
same,GI50,[29],< 10 nM
same,TGI,[29],> 100000 nM
same,GI50,[30],< 10 nM
same,TGI,[30],41 nM
same,GI50,[31],88.6 nM
same,TGI,[31],3990 nM
same,GI50,[32],5170 nM
same,TGI,[32],> 100000 nM
same,GI50,[33],29.1 nM
same,TGI,[33],351 nM
same,GI50,[34],300 nM
same,TGI,[34],3080 nM
same,GI50,[35],25.9 nM
same,TGI,[35],1170 nM
same,GI50,[36],< 10 nM
same,TGI,[36],46 nM
same,GI50,[37],< 10 nM
same,TGI,[37],40.9 nM
same,GI50,[38],< 10 nM
same,GI50,[39],< 10 nM
same,TGI,[39],177 nM
same,GI50,[40],< 11.3 nM
same,TGI,[40],> 100000 nM
same,GI50,[41],< 10 nM
same,TGI,[41],25.7 nM
same,GI50,[42],< 10 nM
same,TGI,[42],260 nM
same,GI50,[43],< 10 nM
same,TGI,[43],129 nM
same,GI50,[44],< 10.3 nM
same,TGI,[44],114 nM
same,GI50,[45],< 10 nM
same,TGI,[45],19.2 nM
same,GI50,[46],< 11.4 nM
same,TGI,[46],189 nM
same,GI50,[47],< 10 nM
same,TGI,[47],< 11.9 nM
same,GI50,[48],< 10 nM
same,TGI,[48],147 nM
same,GI50,[49],< 10 nM
same,TGI,[49],88.2 nM
same,GI50,[50],< 10 nM
same,TGI,[50],74.2 nM
same,GI50,[51],< 10 nM
same,TGI,[51],< 12 nM
same,GI50,[52],92.9 nM
same,TGI,[52],> 100000 nM
same,GI50,[53],< 10 nM
same,GI50,[54],< 10 nM
same,TGI,[54],< 10 nM
same,GI50,[55],< 16.9 nM
same,TGI,[55],751 nM
same,GI50,[56],39.4 nM
same,TGI,[56],> 100000 nM
same,GI50,[57],350 nM
same,TGI,[57],> 100000 nM
same,GI50,[58],40.3 nM
same,TGI,[58],1420 nM
same,GI50,[59],< 11.5 nM
same,TGI,[59],87.7 nM
